# According to ChEMBL document CHEMBL3045986, “Antifungal activity of prenylated flavonoids isolated from Tephrosia apollinea L. against four phytopathogenic fungi” (2013):
# Assays:
# Format in all cases: functional
# Pestalotiopsis sp. [1] = experiment: Antifungal activity against Pestalotiopsis sp. assessed as growth inhibition at 3 mg/ml at 25 degC by agar well diffusion bioassay; conditions: read-out: GI
# Colletotrichum acutatum [2] = experiment: Antifungal activity against Colletotrichum acutatum assessed as growth inhibition at 25 degC after 48 hr by two-fold broth macrodilution method
# Helminthosporium [3] = experiment: Antifungal activity against Helminthosporium sp. assessed as growth inhibition at 25 degC after 48 hr by two-fold broth macrodilution method
# Pestalotiopsis sp. [4] = experiment: Antifungal activity against Pestalotiopsis sp. assessed as growth inhibition at 2 mg/ml at 25 degC by agar well diffusion bioassay; conditions: read-out: GI
# Alternaria alternata [5] = experiment: Antifungal activity against Alternaria alternata assessed as growth inhibition at 2 mg/ml at 25 degC by agar well diffusion bioassay; conditions: read-out: GI
# Helminthosporium [6] = experiment: Antifungal activity against Helminthosporium sp. assessed as growth inhibition at 2 mg/ml at 25 degC by agar well diffusion bioassay; conditions: read-out: GI
# Alternaria alternata [7] = experiment: Antifungal activity against Alternaria alternata assessed as growth inhibition at 25 degC after 48 hr by two-fold broth macrodilution method
# Pestalotiopsis sp. [8] = experiment: Antifungal activity against Pestalotiopsis sp. assessed as growth inhibition at 1 mg/ml at 25 degC by agar well diffusion bioassay; conditions: read-out: GI
# Pestalotiopsis sp. [9] = experiment: Antifungal activity against Pestalotiopsis sp. assessed as growth inhibition at 25 degC after 48 hr by two-fold broth macrodilution method
# Colletotrichum acutatum [10] = experiment: Antifungal activity against Colletotrichum acutatum assessed as growth inhibition at 3 mg/ml at 25 degC by agar well diffusion bioassay; conditions: read-out: GI
# Colletotrichum acutatum [11] = experiment: Antifungal activity against Colletotrichum acutatum assessed as growth inhibition at 4 mg/ml at 25 degC by agar well diffusion bioassay; conditions: read-out: GI
# Colletotrichum acutatum [12] = experiment: Antifungal activity against Colletotrichum acutatum assessed as growth inhibition at 1 mg/ml at 25 degC by agar well diffusion bioassay; conditions: read-out: GI
# Helminthosporium [13] = experiment: Antifungal activity against Helminthosporium sp. assessed as growth inhibition at 1 mg/ml at 25 degC by agar well diffusion bioassay; conditions: read-out: GI
# Helminthosporium [14] = experiment: Antifungal activity against Helminthosporium sp. assessed as growth inhibition at 3 mg/ml at 25 degC by agar well diffusion bioassay; conditions: read-out: GI
# Alternaria alternata [15] = experiment: Antifungal activity against Alternaria alternata assessed as growth inhibition at 4 mg/ml at 25 degC by agar well diffusion bioassay; conditions: read-out: GI
# Colletotrichum acutatum [16] = experiment: Antifungal activity against Colletotrichum acutatum assessed as growth inhibition at 2 mg/ml at 25 degC by agar well diffusion bioassay; conditions: read-out: GI
# Alternaria alternata [17] = experiment: Antifungal activity against Alternaria alternata assessed as growth inhibition at 3 mg/ml at 25 degC by agar well diffusion bioassay; conditions: read-out: GI
# Alternaria alternata [18] = experiment: Antifungal activity against Alternaria alternata assessed as growth inhibition at 1 mg/ml at 25 degC by agar well diffusion bioassay; conditions: read-out: GI
# Pestalotiopsis sp. [19] = experiment: Antifungal activity against Pestalotiopsis sp. assessed as growth inhibition at 4 mg/ml at 25 degC by agar well diffusion bioassay; conditions: read-out: GI
# Helminthosporium [20] = experiment: Antifungal activity against Helminthosporium sp. assessed as growth inhibition at 4 mg/ml at 25 degC by agar well diffusion bioassay; conditions: read-out: GI
Compound,inhibition of growth at 3000 µg/mL (Pestalotiopsis sp. [1]),MIC (Colletotrichum acutatum [2]),MIC (Helminthosporium [3]),inhibition of growth at 2000 µg/mL (Pestalotiopsis sp. [4]),inhibition of growth at 2000 µg/mL (Alternaria alternata [5]),inhibition of growth at 2000 µg/mL (Helminthosporium [6]),MIC (Alternaria alternata [7]),inhibition of growth at 1000 µg/mL (Pestalotiopsis sp. [8]),MIC (Pestalotiopsis sp. [9]),inhibition of growth at 3000 µg/mL (Colletotrichum acutatum [10]),inhibition of growth at 4000 µg/mL (Colletotrichum acutatum [11]),inhibition of growth at 1000 µg/mL (Colletotrichum acutatum [12]),inhibition of growth at 1000 µg/mL (Helminthosporium [13]),inhibition of growth at 3000 µg/mL (Helminthosporium [14]),inhibition of growth at 4000 µg/mL (Alternaria alternata [15]),inhibition of growth at 2000 µg/mL (Colletotrichum acutatum [16]),inhibition of growth at 3000 µg/mL (Alternaria alternata [17]),inhibition of growth at 1000 µg/mL (Alternaria alternata [18]),inhibition of growth at 4000 µg/mL (Pestalotiopsis sp. [19]),inhibition of growth at 4000 µg/mL (Helminthosporium [20])
CC(=O)O[C@@H]1C(C)(C)OC(=O)[C@]12COc1ccc3c(=O)cc(-c4ccccc4)oc3c12 [(+)-GLABRATEPHRIN],20.8%,250 mg/L,250 mg/L,11.8%,10%,11.6%,500 mg/L,8%,500 mg/L,32.6%,46.4%,16.1%,13.9%,23.3%,24.1%,26.4%,17%,5.3%,31.9%,37.8%
COC(=O)Nc1nc2ccccc2[nH]1 [CARBENDAZIM],68.4%,70 mg/L,70 mg/L,61.3%,56.7%,61.1%,125 mg/L,47.7%,70 mg/L,73.9%,78.9%,50.6%,44.2%,66.3%,67.8%,60.3%,63%,43.1%,70.6%,79%
CC(=O)O[C@@H]1C(C)(C)OC(=O)[C@@]12COc1ccc3c(=O)cc(-c4ccccc4)oc3c12 [ISOGLABRATEPHRIN],17%,250 mg/L,1000 mg/L,14.4%,8.4%,16.3%,1000 mg/L,6.3%,1000 mg/L,37%,42.9%,14.4%,7.4%,28.9%,16.1%,25.3%,10.7%,3.2%,27.5%,32.6%
COc1ccc2c(=O)cc(-c3ccccc3)oc2c1/C=C/C(C)(C)O [LANCEOLATIN-A],23.8%,500 mg/L,500 mg/L,16.3%,6.6%,7.7%,1000 mg/L,8.4%,500 mg/L,22.6%,32.6%,10%,4.1%,10.7%,14.1%,15.2%,8.1%,3.3%,29.7%,16%
CC(=O)OC(C1COc2ccc3c(=O)cc(-c4ccccc4)oc3c21)C(C)(C)O (stereo not given) [TEPHROAPOLLIN-F],45.1%,125 mg/L,250 mg/L,26.1%,16%,24.6%,500 mg/L,21.7%,250 mg/L,40.3%,58.3%,23.3%,18%,36.3%,32.8%,31.9%,23.3%,11.9%,51.7%,46.5%
